Data: US20110038948A1, “Methods of Reducing the Production of Reactive Oxygen Species and Methods of Screening or Identifying Compounds and Compositions that Reduce the Production of Reactive Oxygen Species” (UNIVERSITY OF TENNESSEE RESEARCH FOUNDATION, priority 2005, published 2011)

Key:
3T3-L1 adipocytes [1] = assay: Intracellular ROS generation in cultured adipocytes (H2-DCFDA); assay type: cell-based, mouse
Experimental: 3T3-L1 preadipocytes were incubated at a density of 8000 cells/cm^2 (10 cm^2 dish) and grown in Dulbecco's modified Eagle's medium (DMEM) containing 10% FBS and antibiotics (adipocyte medium) at 37° C. in 5% CO2 in air. Confluent preadipocytes were induced to differentiate with a standard differentiation medium consisting of DMEM-F10 (1:1, vol/vol) medium supplemented with 1% FBS, 1 μM dexamethasone, IBMX (0.5 mM) and antibiotics (1% Penicillin-Streptomycin). Preadipocytes were maintained in this differentiation medium for 3 days and subsequently cultured in adipocyte medium. Cultures were re-fed every 2-3 days to allow 90% of cells to reach full differentiation before conducting chemical treatment. Chemicals were freshly diluted in adipocyte medium before treatment. Cells were washed with fresh adipocyte medium, re-fed with medium containing the different treatments, and incubated at 37° C. in 5% CO2 in air before analysis. Cell viability was measured via trypan blue exclusion. […] Cells were loaded with H2-DCFDA (2 μmol/L) 30 minute before the end of the incubation period (48 h). After washing twice with PBS, cells were scraped and disrupted by sonication on ice (20 s). Fluorescence (emission 543 nm or 527 nm) and DNA content were then measured as described previously. The intensity of fluorescence was expressed as arbitrary units per ng DNA.

NADPH oxidase = NADPH oxidase expression in cultured adipocytes; assay type: cell-based, mouse; details: glucose 30 mmol/L alone or plus compound, 48 hours
Experimental: (§1) 3T3-L1 preadipocytes were incubated at a density of 8000 cells/cm^2 (10 cm^2 dish) and grown in Dulbecco's modified Eagle's medium (DMEM) containing 10% FBS and antibiotics (adipocyte medium) at 37° C. in 5% CO2 in air. Confluent preadipocytes were induced to differentiate with a standard differentiation medium consisting of DMEM-F10 (1:1, vol/vol) medium supplemented with 1% FBS, 1 μM dexamethasone, IBMX (0.5 mM) and antibiotics (1% Penicillin-Streptomycin). Preadipocytes were maintained in this differentiation medium for 3 days and subsequently cultured in adipocyte medium. Cultures were re-fed every 2-3 days to allow 90% of cells to reach full differentiation before conducting chemical treatment. Chemicals were freshly diluted in adipocyte medium before treatment. Cells were washed with fresh adipocyte medium, re-fed with medium containing the different treatments, and incubated at 37° C. in 5% CO2 in air before analysis. Cell viability was measured via trypan blue exclusion. Adipocyte 18s, cyclin A, NADPH oxidase, and UCP2 were quantitatively measured using a Smart Cycler Real Time PCR System (Cepheid, Sunnyvale, Calif.) with a TaqMan 1000 Core Reagent Kit (Applied Biosystems, Branchburg, N.J.). The primers and probe sets were ordered from Applied Biosystems TaqMan® Assays-on-Demand™ Gene Expression primers and probe set collection according to manufacture's instruction. Pooled adipocyte total RNA was serial-diluted in the range of 1.5625-25 ng and used to establish a standard curve; total RNAs for unknown samples were also diluted in this range. Reactions of quantitative RT-PCR for standards and unknown samples were also performed according to the instructions of Smart Cycler System (Cepheid, Sunnyvale, Calif.) and TaqMan Real Time PCR Core Kit (Applied Biosystems, Branchburg, N.J.). The mRNA quantitation for each sample was further normalized using the corresponding 18s quantitation.

C2C12 myotubes [2] = assay: IL-15 release by myotubes (ELISA); assay type: cell-based, murine; details: for effect on IL-15 release: C2C12 myotubes, 48 hours
Experimental: IL-15 release in the medium was determined using ELISA. Data are corrected for DNA content. Values are presented as mean±SEM, n=6. Means with different letter differ with p<0.05.

fatty acid synthase = assay: Fatty acid synthase gene expression in adipocytes; assay type: cell-based, murine
Source text: The adipose tissue-skeletal muscle endocrine axis may play a potential role in regulating metabolic energy partitioning. […] However, the effect of leucine and calcium, in regulating this process is unclear. Accordingly, present study was designed to investigate the effect of leucine, calcitriol and calcium on energy metabolism in murine adipocytes and muscle cells.

C2C12 myotubes [3] = assay: Fatty acid oxidation (palmitate oxidation) in muscle cells; assay type: cell-based, murine
Experimental: FIG. 53: Fatty acid oxidation was determined via palmitate oxidation. […] Data are corrected for DNA content. Values are presented as mean±SEM, n=6. Means with different letter differ with p<0.05.
The adipose tissue-skeletal muscle endocrine axis may play a potential role in regulating metabolic energy partitioning. […] While both calcium and dairy accelerate adipose tissue loss, dairy exerts a substantially greater effect and exerts a protective effect on lean tissue during hypocaloric diets. We have shown that dietary calcium modulation of adiposity is mediated, in part, by suppression of calcitriol, while the additional effect of dairy is mediated by additional bioactive components; these include the high concentration of leucine, a key factor in the regulation of muscle protein turnover. […] However, the effect of leucine and calcium, in regulating this process is unclear. Accordingly, present study was designed to investigate the effect of leucine, calcitriol and calcium on energy metabolism in murine adipocytes and muscle cells. Leucine induced a 41% increase in fatty acid oxidation in C2C12 muscle cells (p<0.001) and decreased fatty acid synthase gene expression by 66% (p<0.001) in 3T3-L1 adipocytes. Calcitriol decreased muscle cell fatty acid oxidation by 17% (p<0.05) and increased adipocyte FAS gene expression by 3-fold (p<0.05).

3T3-L1 adipocytes [4] = assay: Cell proliferation / DNA synthesis in cultured adipocytes (CyQUANT); assay type: cell-based, mouse; details: compound plus glucose 30 mmol/L, 48 hours
Experimental: 3T3-L1 preadipocytes were incubated at a density of 8000 cells/cm^2 (10 cm^2 dish) and grown in Dulbecco's modified Eagle's medium (DMEM) containing 10% FBS and antibiotics (adipocyte medium) at 37° C. in 5% CO2 in air. Confluent preadipocytes were induced to differentiate with a standard differentiation medium consisting of DMEM-F10 (1:1, vol/vol) medium supplemented with 1% FBS, 1 μM dexamethasone, IBMX (0.5 mM) and antibiotics (1% Penicillin-Streptomycin). Preadipocytes were maintained in this differentiation medium for 3 days and subsequently cultured in adipocyte medium. Cultures were re-fed every 2-3 days to allow 90% of cells to reach full differentiation before conducting chemical treatment. Chemicals were freshly diluted in adipocyte medium before treatment. Cells were washed with fresh adipocyte medium, re-fed with medium containing the different treatments, and incubated at 37° C. in 5% CO2 in air before analysis. Cell viability was measured via trypan blue exclusion. Cells were plated in DMEM with different treatment in duplicate in 96-well plates. After 48 h, a CyQUANT Cell Proliferation Kit (Molecular Probes, Eugene, Oreg.) was used following the manufacturer's protocol. a microplate fluorometer (Packard Instrument Company, Inc., Downers Grove, Ill.) was used to measure CyQUANT fluorescence. Cell viability was determined by Trypan blue exclusion examination.

cyclin A = assay: Cyclin A expression in cultured adipocytes; assay type: cell-based, mouse; details: compound plus glucose 30 mmol/L, 48 hours
Experimental: as §1, with “Cells were washed with fresh adipocyte medium, re-fed with medium containing the different treatments, and incubated at 37° C. in 5% CO2 in air before analysis.” left out, “The primers and probe sets were ordered from Applied Biosystems TaqMan® Assays-on-Demand™ Gene Expression primers and probe set collection according to manufacture's instruction. Pooled adipocyte total RNA was serial-diluted in the range of 1.5625-25 ng and used to establish a standard curve; total RNAs for unknown samples were also diluted in this range.” left out

3T3-L1 adipocytes [5] = assay: Mitochondrial membrane potential (JC-1); assay type: cell-based, mouse; details: GDP 100 μmol/L plus H2O2
Experimental: 3T3-L1 preadipocytes were incubated at a density of 8000 cells/cm^2 (10 cm^2 dish) and grown in Dulbecco's modified Eagle's medium (DMEM) containing 10% FBS and antibiotics (adipocyte medium) at 37° C. in 5% CO2 in air. Confluent preadipocytes were induced to differentiate with a standard differentiation medium consisting of DMEM-F10 (1:1, vol/vol) medium supplemented with 1% FBS, 1 μM dexamethasone, IBMX (0.5 mM) and antibiotics (1% Penicillin-Streptomycin). Preadipocytes were maintained in this differentiation medium for 3 days and subsequently cultured in adipocyte medium. Cultures were re-fed every 2-3 days to allow 90% of cells to reach full differentiation before conducting chemical treatment. Chemicals were freshly diluted in adipocyte medium before treatment. […] Cell viability was measured via trypan blue exclusion.
Mitochondrial membrane potential was analyzed fluorometrically with a lipophilic cationic dye JC-1 (5,5′,6,6′-tetrachloro-1,1′,3,3′-tetraethylbenzimidazol carbocyanine iodide) using a mitochondrial potential detection kit (Biocarta, San Diego, Calif.). Mitochondrial potential was determined as the ratio of red fluorescence (excitation 550 nm, emission 600 nm) and green fluorescence (excitation 485 nm, emission 535 nm) using a fluorescence microplate reader.

TNFα = TNFα expression in RAW 264 macrophages; assay type: cell-based; details: RAW 264 macrophages cultured alone; compound added to calcitriol
Experimental: (§2) RAW 264 macrophages and 3T3-L1 preadipocytes (American Type Culture Collection) were incubated at a density of 8000 cells/cm2 (10 cm2 dish) and grown in Dulbecco's modified Eagle's medium (DMEM) containing 10% FBS and antibiotics (adipocyte medium) at 37° C. in 5% CO2 in air. Confluent 3T3-L1 preadipocytes were induced to differentiate with a standard differentiation medium consisting of DMEM-F10 (1:1, vol/vol) medium supplemented with 1% FBS, 1 μM dexamethasone, IBMX (0.5 mM) and antibiotics (1% Penicillin-Streptomycin). Preadipocytes were maintained in this differentiation medium for 3 days and subsequently cultured in adipocyte medium. Cultures were re-fed every 2-3 days to allow 90% cells to reach fully differentiation for 3T3-L1 adipocytes or grow to a confluence for RAW 264 before conducting chemical treatment.
(§3) Cells were washed with fresh adipocyte medium, re-fed with medium containing the indicated treatments, and incubated at 37° C. in 5% CO2 for 48 hours before analysis. Cell viability was measured via trypan blue exclusion.
(§4) Human adipocytes (Zen-Bio, Inc.), 3T3-L1 adipocytes, RAW264 macrophages were obtained and co-cultured by using transwell inserts with 0.4 μm porous membranes (Corning) to separate adipocytes and macrophages. All data are expressed as mean±SEM. Data were evaluated for statistical significance by analysis of one-way or two-way variance (ANOVA; means with different letter differ, p<0.05).
Adipocyte and muscle 18s, CD14, TNFα, MIP, M-CSF, IL-6 and MCP-1 were quantitatively measured using a Smart Cycler Real Time PCR System (Cepheid, Sunnyvale, Calif.) with a TaqMan 1000 Core Reagent Kit (Applied Biosystems, Branchburg, N.J.). […] Reactions of quantitative RT-PCR for standards and unknown samples were also performed according to the instructions of Smart Cycler System (Cepheid, Sunnyvale, Calif.) and TaqMan Real Time PCR Core Kit (Applied Biosystems, Branchburg, N.J.). The mRNA quantitation for each sample was further normalized using the corresponding 18s quantitation.

IL-6 = IL-6 expression in RAW 264 macrophages; assay type: cell-based; details: RAW 264 macrophages cultured alone; compound added to calcitriol
Experimental: as §2, with “Cultures were re-fed every 2-3 days to allow 90% cells to reach fully differentiation for 3T3-L1 adipocytes or grow to a confluence for RAW 264 before conducting chemical treatment.” left out
as §3
as §4, with “p<0.05). […]” for “p<0.05).”

`O=C[C@H](O)[C@@H](O)[C@H](O)[C@H](O)CO` [glucose] was tested, and the “effect on ROS production” value (3T3-L1 adipocytes [1]; glucose 30 mmol/L, 48 hours, p<0.05) was “increased ROS production significantly” and the “effect on NADPH oxidase expression” value (NADPH oxidase) was “increased”.

`CC(C)C[C@H](N)C(=O)O` [leucine] was tested, and the “effect on IL-15 release” value (C2C12 myotubes [2]) was “without effect”, the “decrease in fatty acid synthase gene expression” value (fatty acid synthase; 3T3-L1 adipocytes, p<0.001) was 66% and the “effect on calcitriol increased adipocyte FAS gene expression” value (fatty acid synthase; compound added to calcitriol) was “partially reversed”. The “increase in fatty acid oxidation” value (C2C12 myotubes [3]; C2C12 muscle cells, leucine 2.5 mM, 48 hours, p<0.001) was 41%, the “effect on conditioned medium decreased fatty acid oxidation in muscle cells” value (C2C12 myotubes [3]; adipocytes conditioned with leucine and/or nifedipine) was “attenuated” and the “effect on calcitriol decreased muscle cell fatty acid oxidation” value (C2C12 myotubes [3]; compound added to calcitriol) was “partially reversed”.

In the case of `Nc1nc2c(ncn2[C@@H]2O[C@H](COP(=O)(O)OP(=O)(O)O)[C@@H](O)[C@H]2O)c(=O)[nH]1` [GDP], the “effect on glucose induced DNA synthesis” value (3T3-L1 adipocytes [4]) is reported as “augmented”, the “effect on glucose stimulated cyclin A expression” value (cyclin A) is reported as “augmented” and the “increase in ROS production compared with H2O2 treatment alone” value (3T3-L1 adipocytes [1]; GDP 100 μmol/L plus H2O2, 48 hours, p<0.01) is reported as 24%. For the same molecule, the “effect on high glucose induced ROS production” value (3T3-L1 adipocytes [1]; compound plus glucose 30 mmol/L, 48 hours) was “further stimulated”, the “augmentation of the H2O2 effect on mitochondrial potential” value (3T3-L1 adipocytes [5]) was 10% and the “effect on NADPH oxidase expression” value (NADPH oxidase) was “suppressed”.

With `O=[N+]([O-])c1ccc(O)c([N+](=O)[O-])c1` [DNP] the “effect on calcitriol stimulated TNFα expression” value (TNFα) was “blocked” and the “effect on calcitriol stimulated IL-6 expression” value (IL-6) was “blocked”.

B1: adiponectin: adipokine added to C2C12 myotubes at 70 ng/ml (protein, UniProt Q15848 19-244, looked up)
Adiponectin: ETTTQGPGVLLPLPKGACTGWMAGIPGHPGHNGAPGRDGRDGTPGEKGEKGDPGLIGPKGDIGETGVPGAEGPRGFPGIQGRKGEPGEGAYVYRSAFSVGLETYVTIPNMPIRFTKIFYNQQNHYDGSTGKFHCNIPGLYYFAYHITVYMKDVKVSLFKKDKAMLFTYDQYQENNVDQASGSVLLHLEVGDQVWLQVYGEGERNGLYADNDNDSTFTGFLLYHDTN
With B1 the “effect on IL-15 release” value (C2C12 myotubes [2]) was “significantly increased”, the “effect on calcitriol inhibition of IL-15 release” value (C2C12 myotubes [2]; adiponectin 70 ng/ml plus calcitriol 10 nM) was “partially reversed” and the “effect on fatty acid oxidation” value (C2C12 myotubes [3]; C2C12 myotubes, adiponectin 70 ng/ml, 48 hours) was “markedly increased”. For the same molecule, the “effect on fatty acid oxidation suppressed by calcitriol” value (C2C12 myotubes [3]; in the presence of leucine) was “restored”.
